Data reported in the NIST ThermoML archive (doi:10.1021/je500431h).

Conditions: 101 kPa, Liquid; for electrical conductivity: conductivity meter LF 340 and a standard conductivity cell TetraCon; for mass density: Pycnometric method

C=CCn1cc[n+](CCOC)c1.O=S(=O)([N-]S(=O)(=O)C(F)(F)F)C(F)(F)F
Conditions | electrical conductivity [S/m] | mass density [kg/m3] | viscosity [mPa·s]
308.7 K | 0.546 | – | –
309 K | – | 1437 | 23.7
313.3 K | 0.627 | – | –
314 K | – | 1432.3 | 20.3
317 K | – | 1429.6 | 17.8
318.1 K | 0.72 | – | –
323.3 K | 0.828 | – | –
323.5 K | – | 1423.5 | 14.6
327.9 K | 0.935 | – | –
328 K | – | 1419.4 | 13.1
332.9 K | 1.06 | – | –
334 K | – | 1413.9 | 11.2
337.6 K | 1.18 | – | –
338.5 K | – | 1409.9 | 10
343 K | 1.33 | – | –
344 K | – | 1404.9 | 8.8
348 K | – | 1401.3 | 8.2
348.1 K | 1.48 | – | –
352 K | 1.6 | – | –
354.2 K | – | 1395.8 | 7
